In BindingDB's records for patent US11299480 (University of Hawaii, 2022):

Target: Signal transducer and activator of transcription 3 (Homo sapiens, UniProt P40763)
Assay: In Vitro Assay
Description: Except where indicated, nuclear extracts were pre-incubated with compound for 30 min at room temperature prior to incubation with the radiolabeled probe for 30 min at 30° C. before subjecting to EMSA analysis. Where appropriate, bands corresponding to Stat3:DNA complexes were scanned and quantified for each concentration of compound using ImageJ and plotted as percent of control (DMSO) against concentration of compound, from which the IC50 values were derived.

Sequence of Signal transducer and activator of transcription 3 (P40763 whole entry): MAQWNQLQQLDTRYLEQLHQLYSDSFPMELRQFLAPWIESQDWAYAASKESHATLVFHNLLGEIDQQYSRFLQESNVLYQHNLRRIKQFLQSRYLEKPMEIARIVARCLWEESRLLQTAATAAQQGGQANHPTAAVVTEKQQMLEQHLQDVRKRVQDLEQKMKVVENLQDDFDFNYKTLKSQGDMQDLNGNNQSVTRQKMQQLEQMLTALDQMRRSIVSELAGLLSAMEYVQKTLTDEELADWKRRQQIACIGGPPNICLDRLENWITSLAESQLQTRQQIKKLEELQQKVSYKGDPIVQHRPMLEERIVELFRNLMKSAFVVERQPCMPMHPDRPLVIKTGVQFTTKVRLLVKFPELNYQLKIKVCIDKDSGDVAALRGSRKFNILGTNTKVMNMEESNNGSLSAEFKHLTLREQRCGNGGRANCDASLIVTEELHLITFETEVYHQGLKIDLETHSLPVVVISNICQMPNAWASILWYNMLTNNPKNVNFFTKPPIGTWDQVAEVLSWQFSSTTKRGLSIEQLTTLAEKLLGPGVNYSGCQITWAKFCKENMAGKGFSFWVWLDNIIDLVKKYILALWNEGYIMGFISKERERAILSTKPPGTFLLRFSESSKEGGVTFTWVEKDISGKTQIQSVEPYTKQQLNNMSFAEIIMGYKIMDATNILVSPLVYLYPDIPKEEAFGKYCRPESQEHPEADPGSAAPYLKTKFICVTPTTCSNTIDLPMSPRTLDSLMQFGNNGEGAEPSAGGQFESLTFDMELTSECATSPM

IC50: 422 nM
Structure (SMILES): O=C(O)c1ccc(N(Cc2cnc(C3CCCCC3)cn2)C(=O)[C@H]2CCN2S(=O)(=O)c2c(F)c(F)c(F)c(Cl)c2F)cc1O [US11299480, Example 152]
